Source: patent US7018806B2, “Method for identifying endocrine disruptors and kit for carrying out the same” (priority 2001, dated 2006)

Experiments:
aromatase = target: T1, aromatase (Homo sapiens, UniProt P11511); assay: Aromatase activity in KGN cells by [3H]H2O release assay; type: cell-based; conditions: for effect on aromatase activity in KGN cells: method of Example 3, FIGS. 5A–5B
T1 construct: endogenous in cells; host or cells: KGN human ovarian granulosa-like tumor cell line (RIKEN RCB 1154)
T1 sequence (P11511 1-503): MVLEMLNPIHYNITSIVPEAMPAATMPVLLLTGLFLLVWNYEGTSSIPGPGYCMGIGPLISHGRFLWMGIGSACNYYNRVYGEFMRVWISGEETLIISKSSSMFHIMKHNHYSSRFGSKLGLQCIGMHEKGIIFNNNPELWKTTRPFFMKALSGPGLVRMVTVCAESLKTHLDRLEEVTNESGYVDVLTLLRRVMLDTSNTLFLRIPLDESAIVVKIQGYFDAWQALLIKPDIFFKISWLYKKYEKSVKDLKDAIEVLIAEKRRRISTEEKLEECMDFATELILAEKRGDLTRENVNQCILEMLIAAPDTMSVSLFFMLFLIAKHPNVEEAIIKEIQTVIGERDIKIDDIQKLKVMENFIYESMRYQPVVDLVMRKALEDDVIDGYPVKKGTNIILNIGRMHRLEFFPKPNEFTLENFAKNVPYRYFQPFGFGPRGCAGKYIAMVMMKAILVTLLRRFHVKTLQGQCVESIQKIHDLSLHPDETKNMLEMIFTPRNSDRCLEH
Description: Assaying for inhibition or activation of aromatase activity may be carried out by measuring the amount of [^3H]H2O released upon conversion of [1β-^3H]androstenedione to estrone using a modification of the method of Ackerman et al, J. Clin. Endocrinol. Metab., 53:412–417 (1981), or as described in Example 3 below. Briefly, the cells are plated on a petri dish (Falcon 3001) in culture medium with 10% (v/v) fetal calf serum (FCS). At is confluence, the culture medium is replaced with DMEM/Ham's F-12 containing 5.0–10% (v/v) dextran-coated, charcoal-treated FCS (DCS) (Hyclone, Logan Utah), and incubated for another 12 h in the presence or absence of 10^−5–10^−2 M db-cAMP (Wako Pure Chemical Industries Ltd.) and the test compound. After treatment, the cells are further incubated with 12.5 nM [1β-^3H]androstenedione (NEN Life Science Products, Boston, Mass.; SA, 27.5 Ci/mmol) for 6–12 h. After incubation, the medium (2.0 ml) is transferred to tubes containing 1.0 ml ice-cold 30% (w/v) trichloroacetic acid (TCA), and then centrifuged to remove precipitated protein. The cells are harvested using 0.25% (w/v) trypsin-1.0 mM EDTA to determine the protein concentration. The protocol for the extraction of the medium to measure the amount of [^3H]H2O is performed as described by Tanaka et al, Calcif. Tissue Int., 52:107–109 (1993). Finally, the amount of radioactivity in the [^3H]H2O is corrected by subtracting the blank values from each sample. The cell protein content is determined using a micro bicinichoninic acid kit (Pierce Chemical Co., Rockford, Ill.) after the cells are dissolved in 1.0 N NaOH. The aromatase activity is expressed as picomoles per mg cell protein. As a control, the aromatase activities of human granulosa cells (obtained from in vitro fertilization programs), human fibroblast, and HOS cell (human osteoblast-like cell line) (Tanaka et al, supra) can be measured in the same manner.
More specifically, aromatase activity was determined by measuring [^3H] H2O release upon conversion of [1β-^3H]androstenedione (A) to estrone (E1), as described by Mu et al, Biochem. Biophys. Res. Commun., 271(3):710–713 (2000). [1β-^3H]androstenedione was purchased from Amersham Pharmacia Biotech (Boston, Mass.).
The medium (2.0 ml) was extracted with chloroform, and was then centrifuged. The aqueous supernatant was mixed with 5.0% (w/v) charcoal/0.5% (w/v) dextran, and incubated for 30 min. Thereafter, the mixture was centrifuged and the supernatant was added to 5.0 ml of scintillation fluid and assayed for radioactivity. The amount of radioactivity in [^3H]H2O thus measured was standardized based on the protein concentration, which was determined using a micro BCA kit (Pierece Chemical Co., Rockford, Ill.), and expressed as pmol/mg protein/6 h.

marine neogastropods = conditions: cited from earlier work
P450arom promoter II = assay: Luciferase reporter assay of P450arom promoter II in transfected KGN cells; type: cell-based, human; conditions: for luciferase activity of P450arom promoter II: 20 ng/ml, 48 h, basic state or stimulated by db-cAMP; for Ad4BP/SF-1-dependent increase of the luciferase activity: co-transfected with Ad4BP expression vector
Description: Thus, to determine whether or not the decreased expression of P450arom mRNA was regulated through promoter II, which is the major promoter in ovarian granulosa cells (Nishi et al, Endocrinol., 142:437–445 (2001); Means et al, Mol. Endocrinol., 5:2005–2013 (1991); and Carlone et al, Mol. Endocrinol., 11:292–304 (1997)), luciferase activity was determined using a 1 kb P450arom promoter II expression construct in the luciferase reporter vector, pGL3 (Mu et al, Mol. Cell. Endocrinol., 181:239–248 (2001)). pGL3 was obtained from Promega (Madison, Wis.). Transfection was performed using SuperFect reagents according to the manufacturer's instructions (Qiagen (Hilden, Germany)). More specifically, 1×10^5 cells were seeded in a 6-well plate 12 h prior to transfection, and transfected with 2.0 μg of DNA. Five nanograms of Renilla luciferase control reporter vector, pRL-CMV, obtained from Promega (Madison, Wis.), as an internal standard, were added per well to assess the transfection efficiency. […] The promoter activity determined is shown as a fold-increase in the luciferase activity normalized for Renilla luciferase activity (termed relative luciferase activity).

KGN cells [1] = assay: Effect on KGN cell growth (cell counting, trypan blue exclusion); type: cell-based, human; conditions: for toxicity to KGN cells: more than 1000 ng/ml, within 24 h
Description: Further, both compounds were dissolved in ethanol, and the final concentration of ethanol in the cell growth medium was 0.1% (w/v).
More specifically, the cells were plated onto a 24-well plate at 1×10^4 cells/well in DMEM/F-12 supplemented with 10% (v/v) FCS. […] Cell viability was assessed by the trypan blue exclusion method.

P450arom mRNA = conditions: 20 ng/ml, 48 h
Description: RNA extraction and RT-PCR analysis for P450arom mRNA were performed as described by Ikuyama et al, Clin. Endrocrinol., 48(5):647–654 (1998). Taq DNA polymerase was obtained from Promega (Madison, Wis.) All of the primers for the PCR were synthesized by Amersham Pharmacia Biotech (Osaka, Japan). The PCR products were electrophoresed on 2.0% (w/v) agarose gel containing […] ethidium bromide.
The relative expression levels of P450arom vis-à-vis β-actin were determined by the measuring of the intensity of the ethidium bromide.

Ad4BP = assay: Expression level of Ad4BP in KGN cells by RT-PCR; type: cell-based, human
KGN cells [2] = conditions: 200 ng/ml
Description: More specifically, early and late apoptotic changes in the cells were determined using an Annexin V-EGFP/PI Apoptosis Detection Kit, as described by Mu et al, Endocrinol., 142:3590–3597 (2001). […] After the treatment, the cells were washed once with phosphate-buffered saline (PBS), and then incubated with 200 ml of 1× binding buffer comprising 1.0 ml annexin V-EGFP and 1.0 ml propidium iodide (PI) at room temperature for 5 min in the dark. The cells were then scanned using a confocal laser scanning microscopy (Leica TCS-SP system, Leica Microsystems, Heidelberg, Germany) using a dual filter set for FITC & TRITC. The cell membrane was imaged for green fluorescence (stained by annexin V-EGFP) by excitation with the 488 nm line from an argon laser, and the emission was viewed through a 460 to 505 nm band pass filter. The cell nucleus was imaged for red fluorescence (stained by PI) by excitation with the 560 nm line from an argon laser, and the emission was viewed through a 520 to 580 nm band pass filter.

[3] = tested on: E2 production in KGN cells; assay: Estradiol (E2) production in cultured KGN cells (RIA); type: cell-based, human; conditions: 20 ng/ml, 7 days
Description: The media was collected and the E2 content in the media was determined by specific RIA (SRL, Inc. Tokyo, Japan).

Thais clavigera = conditions: rock shell; cited from earlier work
[4] = same culture system (KGN cells)

CCCCNC(=O)n1c(NC(=O)OC)nc2ccccc21 [Benomyl]
effect on aromatase activity in KGN cells (aromatase): activate aromatase activity

c1ccc2c(c1)c1cccc3ccc4cccc2c4c31 [Benzopyrene]
effect on aromatase activity in KGN cells (aromatase): activate aromatase activity

ClC1=C(Cl)C2(Cl)C3C(Cl)C=CC3C1(Cl)C2(Cl)Cl (stereo not shown) [Heptachlor]
effect on aromatase activity in KGN cells (aromatase): activate aromatase activity

CC1=CC(=O)C=C2CC[C@@H]3[C@H](CC[C@]4(C)C(=O)CC[C@@H]34)[C@@]12C [SH489]
imposex induction (marine neogastropods; compared with TBT-exposure): same imposex-inducing effect

N#Cc1ccc(N(Cc2ccc(Br)cc2)n2cnnc2)cc1 [YM511]
extent of suppression of aromatase activity (aromatase; [4]): complete suppression
time for suppression of aromatase activity (aromatase; [4]): ≤ 5 min

CC(=O)O[C@]1(C(C)=O)CC[C@H]2[C@@H]3C=C(Cl)C4=CC(=O)[C@@H]5C[C@@H]5[C@]4(C)[C@H]3CC[C@@]21C [cyproterone acetate]
effect on TBT-induced imposex (marine neogastropods; in vivo): completely suppressed

CCCC(=O)Nc1ncnc2c1ncn2[C@@H]1O[C@@H]2COP(=O)(O)O[C@H]2[C@H]1OC(=O)CCC [db-cAMP, dibutyryl cyclic AMP]
increase in aromatase activity over baseline (aromatase; 10^−4 M db-cAMP): 1.7 fold
activation of the P450arom promoter II (P450arom promoter II; 10^−4 M db-cAMP): 1.7 fold

tributyltin [TBT]
toxicity to KGN cells (KGN cells [1]): all of the cells died
P450arom mRNA levels (P450arom mRNA): decrease
luciferase activity of P450arom promoter II (P450arom promoter II): decreased
Ad4BP/SF-1-dependent increase of the luciferase activity (P450arom promoter II): significantly suppressed
expression level of Ad4BP (Ad4BP): unchanged
apoptotic changes (annexin V positive/PI negative) (KGN cells [2]; 48 h): early apoptotic cells
apoptotic changes (annexin V positive/PI positive) (KGN cells [2]; 72 h): late apoptotic cells

triphenyltin [TPT]
effect on KGN cell proliferation (KGN cells [1]; less than 50 ng/ml (2 or 20 ng/ml), 7 days): little effect
toxicity to KGN cells (KGN cells [1]): all of the cells died
aromatase activity, % of the baseline (aromatase; 20 ng/ml, 72 h, basal (no db-cAMP)): about 30%
effect on db-cAMP-induced increase in aromatase activity (aromatase; 20 ng/ml, with 10^−4 M db-cAMP): suppressed
E2 concentration in the medium [3]: significant decrease
luciferase activity of P450arom promoter II (P450arom promoter II): decreased
Ad4BP/SF-1-dependent increase of the luciferase activity (P450arom promoter II): significantly suppressed
expression level of Ad4BP (Ad4BP): unchanged
effect on the development of imposex (Thais clavigera): strong effect
